The values below come from paper PMC4648050, “Discovery of Inhibitors of Trypanosoma brucei by Phenotypic Screening of a Focused Protein Kinase Library” (Chemmedchem, 2015).

Holding throughout (assay type): biochemical, human/mammalian
Common to all, as to conditions: compound at 10 μM, read-out: % of activity respect of the control

One test has as its target IGF-1R (Homo sapiens, UniProt P08069). The test can be described thus: Kinase panel: IGF-1R. As for the experimental part: (§1) The DDU kinase-focused compound set contains lead-like scaffolds that are designed to target protein kinases; they have kinase hinge binding motifs. Four of the 1H-imidazopyrazinones were screened against a human/mammalian kinase panel at the University of Dundee (http://www.kinase-screen.mrc.ac.uk) at a concentration of 10 μM. At the time of testing the panel contained 79 mammalian kinases selected to provide a broad coverage of the mammalian kinome (∼500 kinases in the human genome).[3] None of the compounds were active against any of the kinases at 10 μM.

The target in another test is CAMK1 (Homo sapiens, UniProt Q14012). The test can be described thus: Kinase panel: CAMK1. As for the experimental part:
as §1

Another test addresses T1, CHK1 (Homo sapiens, UniProt O14757).
T1 sequence (O14757 1-476): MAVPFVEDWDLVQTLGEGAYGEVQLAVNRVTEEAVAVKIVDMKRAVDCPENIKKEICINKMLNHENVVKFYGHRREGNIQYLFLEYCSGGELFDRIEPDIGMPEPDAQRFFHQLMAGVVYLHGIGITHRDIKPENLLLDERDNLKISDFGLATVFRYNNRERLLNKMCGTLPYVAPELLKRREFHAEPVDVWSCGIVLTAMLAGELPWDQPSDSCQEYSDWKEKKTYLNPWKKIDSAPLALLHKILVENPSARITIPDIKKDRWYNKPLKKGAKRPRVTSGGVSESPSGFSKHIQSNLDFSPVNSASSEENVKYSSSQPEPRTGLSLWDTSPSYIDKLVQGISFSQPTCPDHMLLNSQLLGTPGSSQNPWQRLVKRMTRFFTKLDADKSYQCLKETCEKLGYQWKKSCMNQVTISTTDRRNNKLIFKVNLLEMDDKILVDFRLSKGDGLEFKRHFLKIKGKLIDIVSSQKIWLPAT
Put plainly: Kinase panel: CHK1. The method, then: as §1

A further test deals with T2, p38s MAPK (Homo sapiens, UniProt O15264).
T2 sequence (O15264 1-365): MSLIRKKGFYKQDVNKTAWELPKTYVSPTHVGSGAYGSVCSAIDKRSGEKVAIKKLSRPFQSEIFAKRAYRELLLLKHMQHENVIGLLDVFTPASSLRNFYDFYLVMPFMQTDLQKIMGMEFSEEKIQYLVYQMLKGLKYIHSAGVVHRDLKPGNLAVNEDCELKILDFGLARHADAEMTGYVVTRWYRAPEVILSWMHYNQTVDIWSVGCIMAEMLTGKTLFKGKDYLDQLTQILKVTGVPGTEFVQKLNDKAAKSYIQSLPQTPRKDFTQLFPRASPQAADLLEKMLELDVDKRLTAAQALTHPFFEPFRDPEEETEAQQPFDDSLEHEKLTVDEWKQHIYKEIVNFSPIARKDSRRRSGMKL
The test can be described thus: Kinase panel: p38s MAPK. As for the experimental part: as §1

A further test has as its target PKBb (Homo sapiens, UniProt P31751). The test can be described thus: Kinase panel: PKBb. The method, then:
as §1

In the next test the target is FGF-R1 (Homo sapiens, UniProt P11362). Put plainly: Kinase panel: FGF-R1. As for the experimental part:
as §1

The target in a further test is CSK (Homo sapiens, UniProt P41240). Put plainly: Kinase panel: CSK. The method, then: as §1
In the next test the target is T3, BRSK2 (Homo sapiens, UniProt Q8IWQ3).
T3 sequence (Q8IWQ3 1-736): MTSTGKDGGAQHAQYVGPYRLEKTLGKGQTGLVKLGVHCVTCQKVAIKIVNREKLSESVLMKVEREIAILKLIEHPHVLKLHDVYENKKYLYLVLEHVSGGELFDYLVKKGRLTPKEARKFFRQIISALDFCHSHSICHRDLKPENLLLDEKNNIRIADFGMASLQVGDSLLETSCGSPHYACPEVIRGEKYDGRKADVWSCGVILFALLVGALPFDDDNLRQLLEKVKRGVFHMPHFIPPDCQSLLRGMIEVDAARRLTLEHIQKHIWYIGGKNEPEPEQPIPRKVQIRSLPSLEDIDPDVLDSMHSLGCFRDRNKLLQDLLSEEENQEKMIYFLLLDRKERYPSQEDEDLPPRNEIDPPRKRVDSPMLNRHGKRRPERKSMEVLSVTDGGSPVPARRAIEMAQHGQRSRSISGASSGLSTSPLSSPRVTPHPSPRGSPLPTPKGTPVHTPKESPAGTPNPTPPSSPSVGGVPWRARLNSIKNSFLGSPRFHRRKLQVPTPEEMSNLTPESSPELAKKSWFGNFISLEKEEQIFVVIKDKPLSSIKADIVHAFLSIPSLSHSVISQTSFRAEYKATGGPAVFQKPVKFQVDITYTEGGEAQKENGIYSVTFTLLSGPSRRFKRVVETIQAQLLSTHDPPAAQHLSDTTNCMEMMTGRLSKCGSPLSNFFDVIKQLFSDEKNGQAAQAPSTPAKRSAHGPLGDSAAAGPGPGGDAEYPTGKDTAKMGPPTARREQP
Put plainly: Kinase panel: BRSK2. As for the experimental part: as §1

The target in another test is IRR (Homo sapiens, UniProt P14616). Put plainly: Kinase panel: IRR. As for the experimental part:
as §1

Another test addresses PAK5 (Homo sapiens, UniProt Q9P286). Put plainly: Kinase panel: PAK5. As for the experimental part: as §1
In a further test the target is S6K1 (Homo sapiens, UniProt P23443). The test can be described thus: Kinase panel: S6K1. The method, then: as §1
For another test, the target named is NEK6 (Homo sapiens, UniProt Q9HC98). The test can be described thus: Kinase panel: NEK6. As for the experimental part: as §1
The target of another test is T4, SGK1 (Homo sapiens, UniProt O00141).
T4 sequence (O00141 1-431): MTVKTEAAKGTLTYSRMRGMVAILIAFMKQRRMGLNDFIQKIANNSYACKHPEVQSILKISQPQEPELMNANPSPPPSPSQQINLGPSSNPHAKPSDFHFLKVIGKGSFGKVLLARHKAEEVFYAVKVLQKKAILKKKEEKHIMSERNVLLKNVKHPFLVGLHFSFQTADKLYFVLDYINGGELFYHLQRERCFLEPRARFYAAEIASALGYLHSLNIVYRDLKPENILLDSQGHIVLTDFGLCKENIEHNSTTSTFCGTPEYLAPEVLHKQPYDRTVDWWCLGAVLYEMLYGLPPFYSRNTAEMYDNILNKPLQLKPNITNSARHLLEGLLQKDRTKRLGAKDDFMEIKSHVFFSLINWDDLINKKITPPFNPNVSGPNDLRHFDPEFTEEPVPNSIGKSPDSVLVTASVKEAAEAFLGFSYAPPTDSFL
Put plainly: Kinase panel: SGK1. As for the experimental part: as §1

Molecules are shown by their SMILES.

CAMK1, sequence (Q14012 whole entry): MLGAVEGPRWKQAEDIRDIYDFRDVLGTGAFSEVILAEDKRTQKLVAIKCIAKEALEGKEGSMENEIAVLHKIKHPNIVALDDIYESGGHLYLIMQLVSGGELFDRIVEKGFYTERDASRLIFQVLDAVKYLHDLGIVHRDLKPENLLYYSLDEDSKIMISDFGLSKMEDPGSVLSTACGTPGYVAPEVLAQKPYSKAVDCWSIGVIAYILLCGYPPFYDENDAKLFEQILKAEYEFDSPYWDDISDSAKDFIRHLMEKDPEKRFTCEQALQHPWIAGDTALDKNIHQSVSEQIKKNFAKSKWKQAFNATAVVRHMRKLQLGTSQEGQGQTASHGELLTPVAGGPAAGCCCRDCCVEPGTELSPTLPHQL
S6K1, sequence (P23443 whole entry): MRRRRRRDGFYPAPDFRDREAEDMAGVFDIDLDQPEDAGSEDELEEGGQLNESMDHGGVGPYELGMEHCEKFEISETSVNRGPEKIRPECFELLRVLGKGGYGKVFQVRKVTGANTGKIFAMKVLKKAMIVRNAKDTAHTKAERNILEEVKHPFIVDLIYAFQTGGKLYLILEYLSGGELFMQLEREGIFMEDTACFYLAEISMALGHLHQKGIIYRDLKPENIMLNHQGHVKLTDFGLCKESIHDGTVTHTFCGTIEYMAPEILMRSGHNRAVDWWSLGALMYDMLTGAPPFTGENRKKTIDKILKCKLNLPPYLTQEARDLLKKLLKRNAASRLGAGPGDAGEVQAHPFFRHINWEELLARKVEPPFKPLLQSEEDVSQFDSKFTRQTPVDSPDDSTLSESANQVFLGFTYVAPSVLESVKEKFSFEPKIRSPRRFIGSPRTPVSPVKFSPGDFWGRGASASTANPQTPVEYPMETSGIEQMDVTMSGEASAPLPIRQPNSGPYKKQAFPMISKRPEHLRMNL
PAK5, sequence (Q9P286 whole entry): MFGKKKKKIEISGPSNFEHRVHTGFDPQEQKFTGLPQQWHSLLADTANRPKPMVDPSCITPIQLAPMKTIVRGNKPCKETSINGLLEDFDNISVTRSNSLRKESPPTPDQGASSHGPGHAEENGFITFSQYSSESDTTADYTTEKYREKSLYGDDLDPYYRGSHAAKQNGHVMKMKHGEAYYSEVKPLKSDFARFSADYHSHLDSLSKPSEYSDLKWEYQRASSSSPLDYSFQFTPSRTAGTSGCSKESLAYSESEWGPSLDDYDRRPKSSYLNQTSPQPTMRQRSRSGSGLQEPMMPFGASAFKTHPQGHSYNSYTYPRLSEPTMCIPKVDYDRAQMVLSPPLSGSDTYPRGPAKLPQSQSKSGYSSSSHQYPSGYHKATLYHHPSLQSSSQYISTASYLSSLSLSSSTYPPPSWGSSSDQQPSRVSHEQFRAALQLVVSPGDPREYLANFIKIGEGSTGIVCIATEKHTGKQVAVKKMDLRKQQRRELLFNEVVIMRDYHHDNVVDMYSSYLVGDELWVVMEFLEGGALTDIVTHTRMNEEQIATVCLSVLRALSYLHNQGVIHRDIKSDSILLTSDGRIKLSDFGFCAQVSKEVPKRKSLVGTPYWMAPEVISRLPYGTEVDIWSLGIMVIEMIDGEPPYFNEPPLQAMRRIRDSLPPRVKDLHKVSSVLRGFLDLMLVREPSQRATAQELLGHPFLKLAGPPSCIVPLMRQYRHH
PKBb, sequence (P31751 whole entry): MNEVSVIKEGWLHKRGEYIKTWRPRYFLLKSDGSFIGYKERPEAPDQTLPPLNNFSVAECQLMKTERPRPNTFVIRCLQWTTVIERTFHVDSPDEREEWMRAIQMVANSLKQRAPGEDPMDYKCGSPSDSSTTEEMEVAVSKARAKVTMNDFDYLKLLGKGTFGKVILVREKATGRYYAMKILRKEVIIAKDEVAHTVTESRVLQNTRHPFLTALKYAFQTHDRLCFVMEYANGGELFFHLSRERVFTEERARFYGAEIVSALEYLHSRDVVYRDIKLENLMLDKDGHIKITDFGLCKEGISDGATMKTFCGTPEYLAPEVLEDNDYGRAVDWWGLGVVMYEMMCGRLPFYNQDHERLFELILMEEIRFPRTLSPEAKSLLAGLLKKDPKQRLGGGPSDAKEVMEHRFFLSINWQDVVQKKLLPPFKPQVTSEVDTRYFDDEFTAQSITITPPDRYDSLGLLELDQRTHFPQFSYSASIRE
IGF-1R, sequence (P08069 31-1367): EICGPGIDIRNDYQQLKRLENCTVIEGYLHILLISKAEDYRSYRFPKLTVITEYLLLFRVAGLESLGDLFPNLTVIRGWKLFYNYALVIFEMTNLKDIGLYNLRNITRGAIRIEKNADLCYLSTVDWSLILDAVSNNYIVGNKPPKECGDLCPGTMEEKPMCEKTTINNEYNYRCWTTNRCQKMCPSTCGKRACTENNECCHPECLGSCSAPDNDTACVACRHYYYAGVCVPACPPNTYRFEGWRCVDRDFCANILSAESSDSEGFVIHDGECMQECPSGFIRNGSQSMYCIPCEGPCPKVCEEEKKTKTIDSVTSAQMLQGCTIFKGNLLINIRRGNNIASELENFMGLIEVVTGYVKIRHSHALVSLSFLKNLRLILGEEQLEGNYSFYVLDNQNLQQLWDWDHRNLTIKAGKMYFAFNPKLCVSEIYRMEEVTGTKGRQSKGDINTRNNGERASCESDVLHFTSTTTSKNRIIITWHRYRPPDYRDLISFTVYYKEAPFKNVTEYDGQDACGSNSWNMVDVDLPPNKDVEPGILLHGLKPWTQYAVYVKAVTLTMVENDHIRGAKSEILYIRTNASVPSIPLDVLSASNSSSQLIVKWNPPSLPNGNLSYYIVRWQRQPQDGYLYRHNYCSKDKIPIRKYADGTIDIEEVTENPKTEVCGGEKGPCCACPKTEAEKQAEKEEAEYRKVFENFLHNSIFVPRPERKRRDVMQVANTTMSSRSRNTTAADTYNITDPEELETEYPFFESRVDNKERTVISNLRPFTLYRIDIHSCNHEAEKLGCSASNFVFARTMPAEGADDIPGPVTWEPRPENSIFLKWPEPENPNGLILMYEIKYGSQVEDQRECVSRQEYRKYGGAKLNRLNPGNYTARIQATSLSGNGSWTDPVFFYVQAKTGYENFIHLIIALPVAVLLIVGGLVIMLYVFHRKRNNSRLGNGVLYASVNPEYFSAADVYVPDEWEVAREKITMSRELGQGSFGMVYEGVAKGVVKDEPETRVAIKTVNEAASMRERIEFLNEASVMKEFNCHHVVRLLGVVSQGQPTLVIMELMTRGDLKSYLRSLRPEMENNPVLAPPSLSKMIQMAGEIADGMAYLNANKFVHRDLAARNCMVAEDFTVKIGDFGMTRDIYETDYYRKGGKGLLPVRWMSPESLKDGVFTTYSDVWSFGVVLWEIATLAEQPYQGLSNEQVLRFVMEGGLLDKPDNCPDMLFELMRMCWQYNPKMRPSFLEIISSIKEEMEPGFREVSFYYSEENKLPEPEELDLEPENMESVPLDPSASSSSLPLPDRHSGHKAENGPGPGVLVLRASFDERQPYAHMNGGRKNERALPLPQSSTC
FGF-R1, sequence (P11362 22-822): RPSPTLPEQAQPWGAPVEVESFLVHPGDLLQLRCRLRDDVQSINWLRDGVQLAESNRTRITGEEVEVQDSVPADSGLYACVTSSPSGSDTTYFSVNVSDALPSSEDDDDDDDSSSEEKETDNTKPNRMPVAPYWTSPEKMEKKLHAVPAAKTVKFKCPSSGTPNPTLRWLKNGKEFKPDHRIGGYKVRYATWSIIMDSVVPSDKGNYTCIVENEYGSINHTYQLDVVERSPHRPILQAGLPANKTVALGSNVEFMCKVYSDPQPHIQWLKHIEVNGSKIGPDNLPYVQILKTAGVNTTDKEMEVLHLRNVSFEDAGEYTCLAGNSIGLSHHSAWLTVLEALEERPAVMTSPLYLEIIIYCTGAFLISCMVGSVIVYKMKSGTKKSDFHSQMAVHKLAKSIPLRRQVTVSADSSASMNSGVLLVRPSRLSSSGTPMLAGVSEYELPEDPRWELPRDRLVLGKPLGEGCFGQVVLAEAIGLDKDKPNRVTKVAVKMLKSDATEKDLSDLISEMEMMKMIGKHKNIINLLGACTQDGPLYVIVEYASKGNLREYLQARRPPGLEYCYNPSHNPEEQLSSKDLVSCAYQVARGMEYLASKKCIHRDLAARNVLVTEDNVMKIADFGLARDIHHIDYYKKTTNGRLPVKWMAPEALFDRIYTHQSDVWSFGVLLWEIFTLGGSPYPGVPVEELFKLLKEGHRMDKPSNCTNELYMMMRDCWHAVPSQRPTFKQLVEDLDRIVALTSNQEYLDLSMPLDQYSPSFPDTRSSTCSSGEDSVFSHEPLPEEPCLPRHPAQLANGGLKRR
NEK6, sequence (Q9HC98 whole entry): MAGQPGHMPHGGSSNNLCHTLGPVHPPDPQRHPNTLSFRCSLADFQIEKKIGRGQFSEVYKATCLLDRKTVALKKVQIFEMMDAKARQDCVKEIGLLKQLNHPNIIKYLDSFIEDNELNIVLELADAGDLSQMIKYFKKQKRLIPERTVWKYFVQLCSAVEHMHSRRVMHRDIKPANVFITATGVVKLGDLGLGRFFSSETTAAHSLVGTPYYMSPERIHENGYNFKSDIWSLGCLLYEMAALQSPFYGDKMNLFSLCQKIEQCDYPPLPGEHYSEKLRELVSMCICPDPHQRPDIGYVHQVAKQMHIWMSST
CSK, sequence (P41240 whole entry): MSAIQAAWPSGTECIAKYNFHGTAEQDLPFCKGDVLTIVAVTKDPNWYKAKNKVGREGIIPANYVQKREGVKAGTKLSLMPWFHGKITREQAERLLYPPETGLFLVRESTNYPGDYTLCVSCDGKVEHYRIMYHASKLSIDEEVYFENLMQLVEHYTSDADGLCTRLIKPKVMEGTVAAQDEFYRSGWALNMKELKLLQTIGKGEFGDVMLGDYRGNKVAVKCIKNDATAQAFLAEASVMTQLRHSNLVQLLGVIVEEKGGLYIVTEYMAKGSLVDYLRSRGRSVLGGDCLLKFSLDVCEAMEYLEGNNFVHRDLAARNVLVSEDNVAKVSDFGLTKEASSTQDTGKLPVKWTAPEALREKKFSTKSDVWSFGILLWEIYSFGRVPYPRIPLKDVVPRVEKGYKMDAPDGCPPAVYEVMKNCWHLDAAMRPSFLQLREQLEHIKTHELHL

On to `CC(c1ccccc1)n1c(=O)[nH]c2ncc(-c3ccc(F)cc3)nc21` (stereo not shown) [Compound 1], for which the remaining activity at 10 µM on IGF-1R turned out to be 122%; on CAMK1, 87%; at CHK1 it was 100%; at p38s MAPK it was 108%; at PKBb it was 117%; on FGF-R1, 95%. Further, the remaining activity at 10 µM at CSK was 100%; at BRSK2, 82%; on IRR, 96%; on PAK5 it was 84%; on S6K1, 81%; on NEK6 it was 89%. Moreover, the remaining activity at 10 µM on SGK1 was 104%.
Regarding `O=c1[nH]c2ncc(-c3ccc(F)cc3)nc2n1CC1CC1` [Compound 10], the remaining activity at 10 µM at IGF-1R is 85%; on CAMK1 it was 83%; at CHK1 it was 90%; on p38s MAPK it was 91%; on PKBb, 120%; on FGF-R1, 88%. The remaining activity at 10 µM on CSK is 93%; at BRSK2 it was 90%; at IRR it was 104%; on PAK5, 95%; at S6K1, 92%; on NEK6, 86%. Also, on SGK1, the remaining activity at 10 µM was found to be 110%.
As for `O=c1[nH]c2ncc(-c3ccc(F)cc3)nc2n1C1CCCCC1` [Compound 12, 1-Cyclohexyl-6-(4-fluorophenyl)-1H-imidazo[4,5-b]pyrazin-2(3H)-one], the remaining activity at 10 µM on IGF-1R turned out to be 100%; on CAMK1 it was 88%; on CHK1, 96%; at p38s MAPK it was 76%; on PKBb, 106%; at FGF-R1 it was 96%. For the same compound, the remaining activity at 10 µM on CSK is 90%; on BRSK2, 100%; at IRR, 83%; at PAK5 it was 100%; at S6K1, 97%; at NEK6, 94%. Besides, on SGK1, the remaining activity at 10 µM is 111%.
For `C[C@H](c1ccccc1)n1c(=O)[nH]c2ncc(-c3ccccc3)nc21` [Compound 14, (R)-6-Phenyl-1-(1-phenylethyl)-1H-imidazo[4,5-b]pyrazin-2(3H)-one], the remaining activity at 10 µM worked out at 112% on IGF-1R; 72% at CAMK1; 94% on CHK1; 77% on p38s MAPK; 100% on PKBb; 63% at FGF-R1. Also, the remaining activity at 10 µM came to 77% at CSK; 72% at BRSK2; 112% on IRR; 80% at PAK5; 65% on S6K1; 80% on NEK6. Besides, the remaining activity at 10 µM on SGK1 is 98%.
